How the values were obtained:
[1] = target: Sodium-dependent dopamine transporter (Homo sapiens, UniProt Q01959); experiment: Binding affinity to DAT
[2] = target: Kappa-type opioid receptor (Homo sapiens, UniProt P41145); experiment: Binding affinity to kappa opioid receptor
D(1A) dopamine receptor = D(1A) dopamine receptor (Homo sapiens, UniProt P21728); experiment: Binding affinity to dopamine D1 receptor
Cannabinoid receptor 2 = Cannabinoid receptor 2 (Homo sapiens, UniProt P34972); experiment: Binding affinity to CB2 receptor
[3] = target: Delta-type opioid receptor (Homo sapiens, UniProt P41143); experiment: Binding affinity to Delta opioid receptor
Delta-type opioid receptor, sequence (P41143 whole entry): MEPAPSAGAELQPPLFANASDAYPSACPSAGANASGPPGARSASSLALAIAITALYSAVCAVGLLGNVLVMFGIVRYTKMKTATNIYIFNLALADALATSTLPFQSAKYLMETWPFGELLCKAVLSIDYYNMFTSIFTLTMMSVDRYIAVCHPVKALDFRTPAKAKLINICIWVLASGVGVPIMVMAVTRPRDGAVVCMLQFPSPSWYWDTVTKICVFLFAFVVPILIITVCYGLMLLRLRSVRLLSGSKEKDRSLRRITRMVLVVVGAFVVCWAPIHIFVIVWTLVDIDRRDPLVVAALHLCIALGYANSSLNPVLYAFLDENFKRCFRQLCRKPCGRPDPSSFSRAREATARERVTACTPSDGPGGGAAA

[4] = target: Chromaffin granule amine transporter (Homo sapiens, UniProt P54219); experiment: Binding affinity to VMAT1
Chromaffin granule amine transporter, sequence (P54219 whole entry): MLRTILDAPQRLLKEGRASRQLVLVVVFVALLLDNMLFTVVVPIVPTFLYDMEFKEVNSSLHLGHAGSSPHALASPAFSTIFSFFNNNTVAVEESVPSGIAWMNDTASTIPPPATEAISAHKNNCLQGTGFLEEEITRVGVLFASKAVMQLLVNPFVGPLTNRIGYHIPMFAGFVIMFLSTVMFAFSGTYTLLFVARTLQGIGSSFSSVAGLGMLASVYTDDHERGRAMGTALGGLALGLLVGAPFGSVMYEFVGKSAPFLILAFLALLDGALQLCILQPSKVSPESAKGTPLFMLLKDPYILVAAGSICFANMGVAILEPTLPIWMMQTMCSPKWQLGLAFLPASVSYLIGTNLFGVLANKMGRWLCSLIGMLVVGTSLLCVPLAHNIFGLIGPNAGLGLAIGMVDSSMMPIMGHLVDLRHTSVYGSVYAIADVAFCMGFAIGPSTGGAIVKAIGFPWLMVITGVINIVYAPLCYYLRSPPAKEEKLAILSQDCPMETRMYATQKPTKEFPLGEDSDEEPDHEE

[5] = target: Glutamate [NMDA] receptor; experiment: Binding affinity to NMDA receptor; assay type: protein-complex assay
[6] = target: Voltage-gated inwardly rectifying potassium channel KCNH2 (Homo sapiens, UniProt Q12809); experiment: Binding affinity to hERG
Vasopressin V1 receptor = Vasopressin V1 receptor (Homo sapiens, UniProt P37288+P47901); experiment: Binding affinity to vasopressin 1 receptor; assay type: protein assay
[7] = Binding affinity to sodium channel
[8] = target: 5-hydroxytryptamine receptor 6 (Homo sapiens, UniProt P50406); experiment: Binding affinity to human 5HT6 receptor
[9] = target: Muscarinic acetylcholine receptor; experiment: Binding affinity to muscarinic receptor; assay type: protein assay
[10] = target: Tumor necrosis factor receptor superfamily member 16 (Homo sapiens, UniProt P08138); experiment: Binding affinity to neurotrophin receptor
Histamine H2 receptor = Histamine H2 receptor (Homo sapiens, UniProt P25021); experiment: Binding affinity to histamine H2 receptor
[11] = target: Adrenergic receptor alpha-1 (Homo sapiens, UniProt P35348+P25100+P35368); experiment: Binding affinity to adrenergic alpha-1 receptor; assay type: protein assay
[12] = target: 5-hydroxytryptamine receptor 2A (Homo sapiens, UniProt P28223); experiment: Binding affinity to human 5HT2A receptor
[13] = target: Synaptic vesicular amine transporter (Homo sapiens, UniProt Q05940); experiment: Binding affinity to VMAT2
D(4) dopamine receptor = D(4) dopamine receptor (Homo sapiens, UniProt P21917); experiment: Binding affinity to dopamine D4 receptor
D(3) dopamine receptor = D(3) dopamine receptor (Homo sapiens, UniProt P35462); experiment: Binding affinity to dopamine D3 receptor
Adenosine A2 receptor = Adenosine A2 receptor (Homo sapiens, UniProt P29275+P29274); experiment: Binding affinity to adenosine A2 receptor; assay type: protein assay
Histamine H4 receptor = Histamine H4 receptor (Homo sapiens, UniProt Q9H3N8); experiment: Binding affinity to histamine H4 receptor
Histamine H4 receptor, sequence (Q9H3N8 whole entry): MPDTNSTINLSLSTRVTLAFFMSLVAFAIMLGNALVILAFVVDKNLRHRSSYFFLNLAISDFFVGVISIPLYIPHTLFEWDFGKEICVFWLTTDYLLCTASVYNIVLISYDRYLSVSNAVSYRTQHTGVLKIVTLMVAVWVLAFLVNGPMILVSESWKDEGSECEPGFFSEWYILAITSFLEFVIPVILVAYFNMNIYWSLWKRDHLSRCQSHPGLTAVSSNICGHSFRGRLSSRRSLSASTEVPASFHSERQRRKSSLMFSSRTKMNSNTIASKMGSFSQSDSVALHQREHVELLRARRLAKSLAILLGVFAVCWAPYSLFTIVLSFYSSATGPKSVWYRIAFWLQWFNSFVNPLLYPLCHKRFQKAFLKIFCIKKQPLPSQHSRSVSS

[14] = target: T1, 5-hydroxytryptamine receptor 1A (Homo sapiens, UniProt P08908); experiment: Agonistic activity at human 5HT1A receptor by [35S]GTP-gamma-S binding; assay type: functional
T1 sequence (P08908 whole entry): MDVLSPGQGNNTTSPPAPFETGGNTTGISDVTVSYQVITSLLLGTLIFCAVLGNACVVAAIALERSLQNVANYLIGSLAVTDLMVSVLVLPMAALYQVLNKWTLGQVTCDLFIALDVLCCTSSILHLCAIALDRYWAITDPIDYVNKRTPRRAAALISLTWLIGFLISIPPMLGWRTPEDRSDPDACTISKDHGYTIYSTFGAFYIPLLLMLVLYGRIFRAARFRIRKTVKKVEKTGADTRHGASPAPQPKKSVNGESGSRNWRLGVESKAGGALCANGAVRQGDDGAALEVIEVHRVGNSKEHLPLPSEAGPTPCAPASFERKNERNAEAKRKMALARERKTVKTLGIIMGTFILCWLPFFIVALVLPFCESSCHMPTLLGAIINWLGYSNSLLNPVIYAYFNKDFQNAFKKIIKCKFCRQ

Adenosine receptor A2a = Adenosine receptor A2a (Homo sapiens, UniProt P29274); experiment: Binding affinity to adenosine […] receptor
[15] = Binding affinity to GABA receptor
[16] = target: 5-hydroxytryptamine receptor 7 (Homo sapiens, UniProt P34969); experiment: Binding affinity to human 5HT7 receptor
5-hydroxytryptamine receptor 7, sequence (P34969 whole entry): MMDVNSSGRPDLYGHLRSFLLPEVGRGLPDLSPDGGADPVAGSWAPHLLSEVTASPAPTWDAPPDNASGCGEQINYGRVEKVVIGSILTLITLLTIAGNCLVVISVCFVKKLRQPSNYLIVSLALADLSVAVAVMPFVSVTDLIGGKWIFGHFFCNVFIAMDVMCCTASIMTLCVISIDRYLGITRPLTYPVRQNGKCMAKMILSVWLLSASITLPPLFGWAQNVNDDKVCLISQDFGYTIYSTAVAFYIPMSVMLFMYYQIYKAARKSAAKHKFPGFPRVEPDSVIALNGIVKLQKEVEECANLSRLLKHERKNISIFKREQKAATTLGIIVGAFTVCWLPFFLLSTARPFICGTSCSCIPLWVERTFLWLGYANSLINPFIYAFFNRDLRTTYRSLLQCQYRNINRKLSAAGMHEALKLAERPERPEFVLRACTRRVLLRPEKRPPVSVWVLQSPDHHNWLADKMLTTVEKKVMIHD

[17] = target: T1, 5-hydroxytryptamine receptor 1A; experiment: Agonistic activity at human 5HT1A in CHO cells by the inhibition of forskolin-stimulated cAMP accumulation; assay type: functional, cell-based
[18] = target: Alpha-2A adrenergic receptor (Homo sapiens, UniProt P08913); experiment: Binding affinity to adrenergic alpha-2A receptor
Sigma 2 receptor = experiment: Binding affinity to sigma2 receptor
Cannabinoid receptor 1 = Cannabinoid receptor 1 (Homo sapiens, UniProt P21554); experiment: Binding affinity to CB1 receptor
D(1B) dopamine receptor = D(1B) dopamine receptor (Homo sapiens, UniProt P21918); experiment: Binding affinity to dopamine D5 receptor
D(1B) dopamine receptor, sequence (P21918 whole entry): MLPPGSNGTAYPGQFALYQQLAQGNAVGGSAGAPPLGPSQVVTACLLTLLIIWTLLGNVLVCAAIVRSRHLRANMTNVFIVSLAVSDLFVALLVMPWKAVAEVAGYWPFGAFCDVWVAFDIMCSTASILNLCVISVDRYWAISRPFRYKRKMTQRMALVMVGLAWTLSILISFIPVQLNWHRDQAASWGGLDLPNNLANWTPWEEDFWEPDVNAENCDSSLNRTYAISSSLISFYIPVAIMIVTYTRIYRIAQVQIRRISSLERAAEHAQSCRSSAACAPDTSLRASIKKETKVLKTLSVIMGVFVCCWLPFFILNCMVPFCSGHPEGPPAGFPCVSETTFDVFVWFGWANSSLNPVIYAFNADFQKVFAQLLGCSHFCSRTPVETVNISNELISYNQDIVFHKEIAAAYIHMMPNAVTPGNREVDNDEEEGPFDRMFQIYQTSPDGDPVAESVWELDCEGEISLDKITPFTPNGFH

Adenosine receptor A3 = Adenosine receptor A3 (Homo sapiens, UniProt P0DMS8); experiment: Binding affinity to adenosine A3 receptor
[19] = target: Sigma non-opioid intracellular receptor 1 (Homo sapiens, UniProt Q99720); experiment: Binding affinity to sigma1 receptor
Sigma non-opioid intracellular receptor 1, sequence (Q99720 whole entry): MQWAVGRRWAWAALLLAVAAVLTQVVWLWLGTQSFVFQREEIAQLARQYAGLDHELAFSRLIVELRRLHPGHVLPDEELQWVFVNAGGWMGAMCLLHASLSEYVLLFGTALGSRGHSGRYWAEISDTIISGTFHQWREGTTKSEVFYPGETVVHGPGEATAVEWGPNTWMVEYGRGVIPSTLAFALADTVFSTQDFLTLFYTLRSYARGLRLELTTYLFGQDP

[20] = target: Sodium-dependent noradrenaline transporter (Homo sapiens, UniProt P23975); experiment: Binding affinity to NET
[21] = Binding affinity to calcium channel
Mu-type opioid receptor = Mu-type opioid receptor (Homo sapiens, UniProt P35372); experiment: Binding affinity to mu opioid receptor
[22] = target: Beta-2 adrenergic receptor (Homo sapiens, UniProt P07550)
[23] = target: 5-hydroxytryptamine receptor 5A (Homo sapiens, UniProt P47898); experiment: Binding affinity to human 5HT5A receptor
5-hydroxytryptamine receptor 5A, sequence (P47898 whole entry): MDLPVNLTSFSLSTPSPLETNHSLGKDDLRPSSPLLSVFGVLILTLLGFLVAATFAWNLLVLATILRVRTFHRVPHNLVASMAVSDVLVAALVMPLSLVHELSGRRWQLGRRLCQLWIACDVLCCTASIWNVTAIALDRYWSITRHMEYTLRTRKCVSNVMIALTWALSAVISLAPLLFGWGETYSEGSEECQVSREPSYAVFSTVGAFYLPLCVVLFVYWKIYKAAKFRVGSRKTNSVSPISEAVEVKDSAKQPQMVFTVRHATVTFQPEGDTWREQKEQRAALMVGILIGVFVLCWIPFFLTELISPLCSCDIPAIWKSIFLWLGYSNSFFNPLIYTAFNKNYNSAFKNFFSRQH

[24] = target: Alpha-2C adrenergic receptor (Homo sapiens, UniProt P18825); experiment: Binding affinity to adrenergic alpha-2C receptor
[25] = target: Sodium-dependent serotonin transporter (Homo sapiens, UniProt P31645); experiment: Binding affinity to SERT
[26] = target: Alpha-2B adrenergic receptor (Homo sapiens, UniProt P18089); experiment: Binding affinity to adrenergic alpha-2B receptor
[27] = target: Glutamate receptor ionotropic AMPA (Homo sapiens, UniProt P42261+P42262+P42263+P48058); experiment: Binding affinity to AMPA receptor; assay type: protein-complex assay
D(2) dopamine receptor = D(2) dopamine receptor (Homo sapiens, UniProt P14416); experiment: Binding affinity to dopamine D2 receptor
[28] = Binding affinity to mGluR
[29] = target: Beta-3 adrenergic receptor (Homo sapiens, UniProt P13945); experiment: Binding affinity to adrenergic beta-3 receptor
[30] = Binding affinity to prostanoid receptor
[31] = target: 5-hydroxytryptamine receptor 2C (Homo sapiens, UniProt P28335); experiment: Binding affinity to human 5HT2C receptor
[32] = target: Serotonin 3 (5-HT3) receptor; experiment: Binding affinity to human 5HT3 receptor; assay type: protein-complex assay
[33] = Binding affinity to NK receptor
[34] = Binding affinity to imidazoline receptor
[35] = target: Beta-1 adrenergic receptor (Homo sapiens, UniProt P08588); experiment: Binding affinity to adrenergic beta-1 receptor
Histamine H1 receptor = Histamine H1 receptor (Homo sapiens, UniProt P35367); experiment: Binding affinity to histamine H1 receptor
Histamine H1 receptor, sequence (P35367 whole entry): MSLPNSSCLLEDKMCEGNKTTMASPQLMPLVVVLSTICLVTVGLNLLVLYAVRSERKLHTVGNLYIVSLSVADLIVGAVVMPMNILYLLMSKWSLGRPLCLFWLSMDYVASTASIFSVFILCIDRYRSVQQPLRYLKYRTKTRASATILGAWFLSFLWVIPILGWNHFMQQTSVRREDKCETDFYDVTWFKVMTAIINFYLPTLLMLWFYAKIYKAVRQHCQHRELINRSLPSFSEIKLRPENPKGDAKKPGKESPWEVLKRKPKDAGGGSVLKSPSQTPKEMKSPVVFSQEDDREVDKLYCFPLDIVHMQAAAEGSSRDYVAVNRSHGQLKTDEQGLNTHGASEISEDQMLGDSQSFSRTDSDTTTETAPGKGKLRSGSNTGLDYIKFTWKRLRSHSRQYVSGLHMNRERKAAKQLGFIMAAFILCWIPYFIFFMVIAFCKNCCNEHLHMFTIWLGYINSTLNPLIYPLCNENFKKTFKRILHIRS

[36] = target: T1, 5-hydroxytryptamine receptor 1A; experiment: Displacement of [3H]8-OH-DPAT from human 5HT1A receptor expressed in CHO cells; assay type: cell-based
Vasopressin V2 receptor = Vasopressin V2 receptor (Homo sapiens, UniProt P30518); experiment: Binding affinity to vasopressin 2 receptor
Vasopressin V2 receptor, sequence (P30518 whole entry): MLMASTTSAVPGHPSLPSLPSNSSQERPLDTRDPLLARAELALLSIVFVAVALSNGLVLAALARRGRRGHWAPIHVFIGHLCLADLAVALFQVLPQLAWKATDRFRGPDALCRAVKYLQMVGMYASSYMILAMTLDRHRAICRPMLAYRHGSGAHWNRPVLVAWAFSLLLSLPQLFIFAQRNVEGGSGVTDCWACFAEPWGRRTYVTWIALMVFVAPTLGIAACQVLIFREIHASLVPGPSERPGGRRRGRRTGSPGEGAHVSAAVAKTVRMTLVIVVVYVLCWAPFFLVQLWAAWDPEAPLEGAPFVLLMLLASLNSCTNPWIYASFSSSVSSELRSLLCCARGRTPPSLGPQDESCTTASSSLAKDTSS

Histamine H3 receptor = Histamine H3 receptor (Homo sapiens, UniProt Q9Y5N1); experiment: Binding affinity to histamine H3 receptor
[37] = target: ATP-dependent translocase ABCB1 (Homo sapiens, UniProt P08183); experiment: Binding affinity to MDR1
ATP-dependent translocase ABCB1, sequence (P08183 whole entry): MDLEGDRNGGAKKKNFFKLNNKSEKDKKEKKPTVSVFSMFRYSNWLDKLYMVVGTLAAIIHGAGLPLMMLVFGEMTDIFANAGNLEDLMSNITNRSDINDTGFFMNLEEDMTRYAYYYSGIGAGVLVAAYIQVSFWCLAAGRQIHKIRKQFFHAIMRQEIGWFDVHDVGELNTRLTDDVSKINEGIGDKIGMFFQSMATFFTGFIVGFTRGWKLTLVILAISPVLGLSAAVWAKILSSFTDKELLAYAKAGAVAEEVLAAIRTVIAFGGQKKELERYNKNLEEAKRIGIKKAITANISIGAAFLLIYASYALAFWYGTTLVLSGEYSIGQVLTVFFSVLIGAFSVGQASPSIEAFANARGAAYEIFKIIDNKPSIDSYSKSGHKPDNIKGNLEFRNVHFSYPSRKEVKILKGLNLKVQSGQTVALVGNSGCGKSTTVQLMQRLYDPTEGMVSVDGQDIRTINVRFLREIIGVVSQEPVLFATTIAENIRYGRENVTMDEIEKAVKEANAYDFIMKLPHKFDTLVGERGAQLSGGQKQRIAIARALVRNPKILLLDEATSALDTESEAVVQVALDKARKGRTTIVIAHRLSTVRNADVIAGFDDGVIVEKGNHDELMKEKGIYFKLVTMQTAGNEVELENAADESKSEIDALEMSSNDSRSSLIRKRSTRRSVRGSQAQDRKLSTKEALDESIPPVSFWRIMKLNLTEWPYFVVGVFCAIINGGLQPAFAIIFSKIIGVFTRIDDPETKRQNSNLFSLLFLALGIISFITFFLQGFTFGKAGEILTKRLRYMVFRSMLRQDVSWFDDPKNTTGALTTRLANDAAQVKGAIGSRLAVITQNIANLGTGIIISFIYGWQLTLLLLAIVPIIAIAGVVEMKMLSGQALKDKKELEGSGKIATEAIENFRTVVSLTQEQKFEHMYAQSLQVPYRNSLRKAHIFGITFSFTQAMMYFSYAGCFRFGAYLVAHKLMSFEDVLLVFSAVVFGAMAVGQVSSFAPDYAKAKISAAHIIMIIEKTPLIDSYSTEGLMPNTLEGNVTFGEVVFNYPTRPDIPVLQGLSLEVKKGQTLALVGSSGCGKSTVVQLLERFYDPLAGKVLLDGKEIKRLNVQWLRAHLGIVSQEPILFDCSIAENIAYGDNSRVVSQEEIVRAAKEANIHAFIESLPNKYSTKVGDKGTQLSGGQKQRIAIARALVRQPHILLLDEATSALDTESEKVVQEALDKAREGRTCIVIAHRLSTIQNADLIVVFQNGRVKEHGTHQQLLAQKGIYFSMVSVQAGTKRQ

## Cn1c(=O)cnn(CCCCN2CCN(c3cccc4ccc(O[11CH3])cc34)CC2)c1=O
[1]
  Ki: 407 nM
[2]
  Ki: > 10000 nM
D(1A) dopamine receptor
  Ki: 7400 nM
Cannabinoid receptor 2
  Ki: > 10000 nM
[3]
  Ki: > 10000 nM
[4]
  Ki: > 10000 nM
[5]
  Ki: > 10000 nM
[6]
  Ki: > 10000 nM
Vasopressin V1 receptor
  Ki: > 10000 nM
[7]
  Ki: > 10000 nM
[8]
  Ki: 120 nM
[9]
  Ki: > 10000 nM
[10]
  Ki: > 10000 nM
Histamine H2 receptor
  Ki: 302 nM
[11]
  Ki: 32.2 nM
[12]
  Ki: 41.5 nM
[13]
  Ki: > 10000 nM
D(4) dopamine receptor
  Ki: 8.5 nM
D(3) dopamine receptor
  Ki: 62.8 nM
Adenosine A2 receptor
  Ki: > 10000 nM
Histamine H4 receptor
  Ki: > 10000 nM
[14]
  EC50: 0.05 nM
Adenosine receptor A2a
  Ki: > 10000 nM
[15]
  Ki: > 10000 nM
[16]
  Ki: 9.1 nM
[17]
  EC50: 0.01 nM
[18]
  Ki: 1010 nM
Sigma 2 receptor
  Ki: > 10000 nM
Cannabinoid receptor 1
  Ki: > 10000 nM
D(1B) dopamine receptor
  Ki: > 10000 nM
Adenosine receptor A3
  Ki: > 10000 nM
[19]
  Ki: 480 nM
[20]
  Ki: 6980 nM
[21]
  Ki: > 10000 nM
Mu-type opioid receptor
  Ki: > 10000 nM
[22]
  Ki: 60.6 nM
[23]
  Ki: 229 nM
[24]
  Ki: 23.7 nM
[25]
  Ki: 6140 nM
[26]
  Ki: 316 nM
[27]
  Ki: > 10000 nM
D(2) dopamine receptor
  Ki: 22 nM
[28]
  Ki: > 10000 nM
[29]
  Ki: > 10000 nM
[30]
  Ki: > 10000 nM
[31]
  Ki: 99.6 nM
[32]
  Ki: > 10000 nM
[33]
  Ki: > 10000 nM
[34]
  Ki: > 10000 nM
[35]
  Ki: 476 nM
Histamine H1 receptor
  Ki: 150 nM
[36]
  Ki: 1.36 nM
Vasopressin V2 receptor
  Ki: > 10000 nM
Histamine H3 receptor
  Ki: > 10000 nM
[37]
  Ki: > 10000 nM

From ChEMBL document CHEMBL1148600, “Synthesis and in vivo validation of [O-methyl-11C]2-{4-[4-(7-methoxynaphthalen-1-yl)piperazin- 1-yl]butyl}-4-methyl-2H-[1,2,4]triazine-3,5-dione: a novel 5-HT1A receptor agonist positron emission tomography ligand” (J Med Chem, 2006)
